Experiment [1] deals with T1, Phosphatidylinositol 5-phosphate 4-kinase type-2 alpha (Homo sapiens, UniProt P48426).
T1 sequence (P48426 whole entry): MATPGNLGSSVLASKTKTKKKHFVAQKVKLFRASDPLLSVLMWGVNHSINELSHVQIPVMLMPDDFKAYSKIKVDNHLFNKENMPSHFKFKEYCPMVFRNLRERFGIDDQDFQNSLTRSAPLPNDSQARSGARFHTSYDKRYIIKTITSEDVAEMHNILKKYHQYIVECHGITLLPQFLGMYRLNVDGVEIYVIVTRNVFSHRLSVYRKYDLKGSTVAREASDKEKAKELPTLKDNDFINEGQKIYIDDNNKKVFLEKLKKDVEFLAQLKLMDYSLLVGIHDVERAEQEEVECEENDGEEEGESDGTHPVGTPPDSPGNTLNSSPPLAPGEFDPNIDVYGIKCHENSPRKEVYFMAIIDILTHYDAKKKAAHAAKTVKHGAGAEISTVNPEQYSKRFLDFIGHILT
Description: Inhibition of PI5P4Kalpha (unknown origin) incubated for 15 mins in presence of ATP by ADP-Glo assay. In general terms: ADP-Glo turns the ADP formed in a reaction into a luminescent signal.

The target of experiment [2] is T2, Phosphatidylinositol 5-phosphate 4-kinase type-2 beta (Homo sapiens, UniProt P78356).
T2 sequence (P78356 whole entry): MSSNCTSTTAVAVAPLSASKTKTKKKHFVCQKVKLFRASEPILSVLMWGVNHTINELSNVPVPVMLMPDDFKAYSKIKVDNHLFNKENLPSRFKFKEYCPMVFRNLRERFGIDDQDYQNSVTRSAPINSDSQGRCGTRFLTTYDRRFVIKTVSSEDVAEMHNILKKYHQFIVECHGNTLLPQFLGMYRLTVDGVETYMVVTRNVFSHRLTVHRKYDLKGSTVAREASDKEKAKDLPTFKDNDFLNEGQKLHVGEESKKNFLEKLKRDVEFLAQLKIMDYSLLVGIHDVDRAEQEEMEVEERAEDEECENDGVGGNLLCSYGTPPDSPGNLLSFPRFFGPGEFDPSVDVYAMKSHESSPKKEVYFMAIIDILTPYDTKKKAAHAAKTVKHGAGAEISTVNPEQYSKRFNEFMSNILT
The experiment can be described thus: Inhibition of PI5P4Kbeta (unknown origin) incubated for 15 mins in presence of ATP by ADP-Glo assay.

For experiment [3], the target named is T3, Phosphatidylinositol 5-phosphate 4-kinase type-2 gamma (Homo sapiens, UniProt Q8TBX8).
T3 sequence (Q8TBX8 whole entry): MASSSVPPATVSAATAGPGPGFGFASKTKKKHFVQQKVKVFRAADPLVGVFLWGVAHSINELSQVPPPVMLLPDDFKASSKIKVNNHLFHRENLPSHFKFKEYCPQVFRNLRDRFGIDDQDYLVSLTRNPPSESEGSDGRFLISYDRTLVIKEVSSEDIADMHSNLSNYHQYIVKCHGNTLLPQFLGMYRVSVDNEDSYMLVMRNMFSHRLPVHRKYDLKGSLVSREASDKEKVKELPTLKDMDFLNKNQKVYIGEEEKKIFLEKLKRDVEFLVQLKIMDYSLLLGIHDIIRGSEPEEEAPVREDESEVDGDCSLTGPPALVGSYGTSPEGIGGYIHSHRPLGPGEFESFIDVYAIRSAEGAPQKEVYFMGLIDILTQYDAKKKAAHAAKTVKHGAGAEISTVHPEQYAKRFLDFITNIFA
The experiment can be described thus: Inhibition of PI5P4Kgamma (unknown origin).

In the case of `CN(C)C/C=C/C(=O)Nc1cccc(NC(=O)N2CCCC(Nc3cc(-c4cnc5[nH]ccc5c4)ncn3)C2)c1` (stereo unspecified), the IC50 result in experiment [1] and in experiment [2] was “Not Active” in each case.

Turning to `FC(F)(F)c1ccccc1-c1nc(NCc2cccs2)c2ccccc2n1`, half-maximal inhibition in experiment [3] (IC50) required 1 µM.

As for `Cc1ccc(-n2ccc3c(Nc4cccc(NC(=O)c5ccc(NC(=O)/C=C/CN(C)C)cc5)c4)ncnc32)cc1`, the figures for the IC50 in experiment [1] (read-out: IC50) and in experiment [2] (read-out: IC50) were 1.34 µM and 9.9 µM, respectively.

As for `Cn1nnnc1Sc1ncnc2scc(-c3cccc(S(C)(=O)=O)c3)c12`, the IC50 – broadly, the concentration that gives 50% inhibition – in experiment [3] was found to be 15.8 µM.
